From patent US20090098130A1, “GLUCAGON-LIKE PROTEIN-1 RECEPTOR (GLP-1R) AGONIST COMPOUNDS” (priority 2007, published 2009)

Test system: pancreatic β cells
Assay: glucose-stimulated insulin secretion (GSIS) assay
Assay type: cell-based
Procedure: Briefly, glucose and GA targeting peptide was added at various concentrations to pancreatic β cell cultures, and insulin secretion was detected by measuring insulin levels over time. EC50 was calculated for each peptide.
The ability of these GA targeting agent-linker conjugates to stimulate […] secretion in vitro was measured using the GSIS assay described in Example 27. […] Each of these peptides contained a side-chain modified Lys residue according to the scheme illustrated in FIG. 30 at a different position.

[1] = GA targeting agent-linker conjugate, GSIS assay in vitro

SMILES: CC[C@H](C)[C@H](NC(=O)[C@H](Cc1ccccc1)NC(=O)[C@H](CCC(=O)O)NC(=O)[C@H](CCCCN)NC(=O)[C@H](C)NC(=O)[C@H](C)NC(=O)[C@H](CCC(N)=O)NC(=O)CNC(=O)[C@H](CCC(=O)O)NC(=O)[C@H](CC(C)C)NC(=O)[C@H](Cc1ccc(O)cc1)NC(=O)[C@H](CO)NC(=O)[C@H](CO)NC(=O)[C@@H](NC(=O)[C@H](CC(=O)O)NC(=O)[C@H](CO)NC(=O)[C@@H](NC(=O)[C@H](Cc1ccccc1)NC(=O)[C@@H](NC(=O)CNC(=O)[C@H](CCC(=O)O)NC(=O)CNC(=O)[C@H](Cc1c[nH]cn1)NC(=O)CCOCCOCCOCCOCCNC(=O)CCCC(=O)Nc1ccc(CCC(=O)CC(C)=O)cc1)[C@@H](C)O)[C@@H](C)O)C(C)C)C(=O)N[C@@H](C)C(=O)N[C@@H](Cc1c[nH]c2ccccc12)C(=O)N[C@@H](CC(C)C)C(=O)N[C@H](C(=O)N[C@@H](CCCCN)C(=O)NCC(=O)N[C@@H](CCCNC(=N)N)C(=O)N[C@@H](CCCCN)C(N)=O)C(C)C
- EC50 [1]: < 10 µM

SMILES: CC/C=C/CC(=O)N[C@@H](Cc1c[nH]cn1)C(=O)NC(C)(C)C(=O)N[C@@H](CCC(=O)O)C(=O)NCC(=O)N[C@H](C(=O)N[C@@H](Cc1ccccc1)C(=O)N[C@H](C(=O)N[C@@H](CO)C(=O)N[C@@H](CC(=O)O)C(=O)N[C@H](C(=O)N[C@@H](CO)C(=O)N[C@@H](CO)C(=O)N[C@@H](Cc1ccc(O)cc1)C(=O)N[C@@H](CC(C)C)C(=O)N[C@@H](CCC(=O)O)C(=O)N[C@@H](CCC(=O)O)C(=O)N[C@@H](CCC(N)=O)C(=O)N[C@@H](C)C(=O)N[C@H](C(=O)N[C@@H](CCCCN)C(=O)N[C@@H](CCC(=O)O)C(=O)N[C@@H](Cc1ccccc1)C(=O)N[C@H](C(=O)N[C@@H](C)C(=O)N[C@@H](Cc1c[nH]c2ccccc12)C(=O)N[C@@H](CC(C)C)C(=O)N[C@H](C(=O)N[C@@H](CCCCN)C(=O)NC(C)(C)C(=O)N[C@@H](CCCNC(=N)N)C(N)=O)[C@@H](C)CC)[C@@H](C)CC)C(C)C)C(C)C)[C@@H](C)O)[C@@H](C)O
- EC50 [1]: < 10 µM

SMILES: CC[C@H](C)[C@H](NC(=O)[C@H](Cc1ccccc1)NC(=O)[C@H](CCC(=O)O)NC(=O)[C@H](CCCCN)NC(=O)[C@@H](NC(=O)[C@H](C)NC(=O)[C@H](CCC(N)=O)NC(=O)[C@H](CCC(=O)O)NC(=O)[C@H](CCC(=O)O)NC(=O)[C@H](CC(C)C)NC(=O)[C@H](Cc1ccc(O)cc1)NC(=O)[C@H](CO)NC(=O)[C@H](CO)NC(=O)[C@@H](NC(=O)[C@H](CC(=O)O)NC(=O)[C@H](CO)NC(=O)[C@@H](NC(=O)[C@H](Cc1ccccc1)NC(=O)[C@@H](NC(=O)CNC(=O)[C@H](CCC(=O)O)NC(=O)C(C)(C)NC(=O)[C@H](Cc1c[nH]cn1)NC(=O)Cc1cccc(N)c1)[C@@H](C)O)[C@@H](C)O)C(C)C)C(C)C)C(=O)N[C@@H](C)C(=O)N[C@@H](Cc1c[nH]c2ccccc12)C(=O)N[C@@H](CC(C)C)C(=O)N[C@H](C(=O)N[C@@H](CCCCN)C(=O)NC(C)(C)C(=O)N[C@@H](CCCNC(=N)N)C(N)=O)[C@@H](C)CC
- EC50 [1]: < 10 µM

SMILES: CC[C@H](C)[C@H](NC(=O)[C@H](Cc1ccccc1)NC(=O)[C@H](CCC(=O)O)NC(=O)[C@H](CCCCN)NC(=O)[C@H](C)NC(=O)[C@H](C)NC(=O)[C@H](CCC(N)=O)NC(=O)CNC(=O)[C@H](CCC(=O)O)NC(=O)[C@H](CC(C)C)NC(=O)[C@H](Cc1ccc(O)cc1)NC(=O)[C@H](CO)NC(=O)[C@H](CO)NC(=O)[C@@H](NC(=O)[C@H](CC(=O)O)NC(=O)[C@H](CO)NC(=O)[C@@H](NC(=O)[C@H](Cc1ccccc1)NC(=O)[C@@H](NC(=O)CNC(=O)[C@H](CCC(=O)O)NC(=O)[C@H](C)NC(=O)[C@@H](N)Cc1c[nH]cn1)[C@@H](C)O)[C@@H](C)O)C(C)C)C(=O)N[C@@H](C)C(=O)N[C@@H](Cc1c[nH]c2ccccc12)C(=O)N[C@@H](CC(C)C)C(=O)N[C@H](C(=O)N[C@@H](CCCCN)C(=O)NCC(=O)N[C@@H](CCCNC(=N)N)C(N)=O)C(C)C [SEQ ID NO: 1, reference compound]
- EC50 (GA targeting peptide, insulin secretion from pancreatic β cell cultures in vitro with glucose): < 10 µM
